From ChEMBL document CHEMBL1201861, “Genomics of Drug Sensitity in Cancer screening data, Wellcome Trust Sanger Institute”

Columns and labels:
Assay type in all cases: functional, cell-based
SU-DHL-1 = test: SANGER: Inhibition of human SU-DHL-1 cell growth in a cell viability assay.
NCI-H522 = test: cells; settings: Homo sapiens;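 also: cell viability assay measuring growth inhibition of human NCI-H522 cells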
Description: SANGER: Inhibition of human NCI-H522 cell growth in a cell viability assay.

BEN = test: cells; settings: Homo sapiens;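 also: growth inhibition of the BEN cell line, read out with a cell viability assay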
Description: SANGER: Inhibition of human BEN cell growth in a cell viability assay.

BFTC-909 = test: cells; settings: Homo sapiens
Description: SANGER: Inhibition of human BFTC-909 cell growth in a cell viability assay.

RPMI-7951 = test: cells; settings: Homo sapiens
Description: SANGER: Inhibition of human RPMI-7951 cell growth in a cell viability assay.

LoVo = test: cells; settings: Homo sapiens;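 also: growth inhibition of human LoVo cells, read out with a cell viability assay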
Description: SANGER: Inhibition of human LoVo cell growth in a cell viability assay.

ME-180 = test: cells; settings: Homo sapiens;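 also: cell viability assay measuring growth inhibition of ME-180 cells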
Description: SANGER: Inhibition of human ME-180 cell growth in a cell viability assay.

MDA-MB-361 = test: cells; settings: Homo sapiens
NCI-H1963 = test: cells; settings: Homo sapiens;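 also: cell growth inhibition of the human line, determined with a cell viability assay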
Description: SANGER: Inhibition of human NCI-H1963 cell growth in a cell viability assay.

SW1463 = test: cells; settings: Homo sapiens;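 also: growth inhibition of SW1463 cells, determined with a cell viability assay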
Description: SANGER: Inhibition of human SW1463 cell growth in a cell viability assay.

NCI-H292 = test: cells; settings: Homo sapiens;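 also: growth inhibition of NCI-H292 cells, read out with a cell viability assay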
Description: SANGER: Inhibition of human NCI-H292 cell growth in a cell viability assay.

MONO-MAC-6 = test: cells; settings: Homo sapiens;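 also: cell viability assay measuring growth inhibition of human MONO-MAC-6 cells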
Description: SANGER: Inhibition of human MONO-MAC-6 cell growth in a cell viability assay.

SUP-T1 = test: cells; settings: Homo sapiens;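 also: growth inhibition of human SUP-T1 cells, read out as cell viability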
Description: SANGER: Inhibition of human SUP-T1 cell growth in a cell viability assay.

639-V = test: cells; settings: Homo sapiens;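 also: growth inhibition of 639-V cells, read out with a cell viability assay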
Description: SANGER: Inhibition of human 639-V cell growth in a cell viability assay.

NCI-H2087 = test: cells; settings: Homo sapiens;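 also: growth inhibition determined with a cell viability readout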
Description: SANGER: Inhibition of human NCI-H2087 cell growth in a cell viability assay.

5637 = test: cells; settings: Homo sapiens
Description: SANGER: Inhibition of human 5637 cell growth in a cell viability assay.

PC-14 = test: cells; settings: Homo sapiens;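 also: cell viability assay measuring inhibition of PC-14 cell growth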
Description: SANGER: Inhibition of human PC-14 cell growth in a cell viability assay.

A 172 = test: cells; settings: Homo sapiens;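 also: growth inhibition of A172 cells, measured with a cell viability readout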
Description: SANGER: Inhibition of human A172 cell growth in a cell viability assay.

NCI-H1437 = test: cells; settings: Homo sapiens;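 also: growth inhibition of human NCI-H1437 cells, read out by a cell viability assay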
Description: SANGER: Inhibition of human NCI-H1437 cell growth in a cell viability assay.

SW837 = test: cells; settings: Homo sapiens;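 also: growth inhibition of SW837 cells, determined with a cell viability assay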
Description: SANGER: Inhibition of human SW837 cell growth in a cell viability assay.

KP-N-YN = test: cells; settings: Homo sapiens;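 also: growth inhibition of KP-N-YN cells, read out with a cell viability assay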
Description: SANGER: Inhibition of human KP-N-YN cell growth in a cell viability assay.

KYSE-70 cell line = test: cells; settings: Homo sapiens;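 also: cell viability assay read-out, with IC50 expressing suppression of KYSE-70 cell growth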
Description: SANGER: Inhibition of human KYSE-70 cell growth in a cell viability assay.

IMR-5 = test: cells; settings: Homo sapiens;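 also: growth inhibition of human IMR-5 cells, read out with a cell viability assay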
Description: SANGER: Inhibition of human IMR-5 cell growth in a cell viability assay.

8505C = test: cells; settings: Homo sapiens
Description: SANGER: Inhibition of human 8505C cell growth in a cell viability assay.

RD = test: cells; settings: Homo sapiens
Description: SANGER: Inhibition of human RD cell growth in a cell viability assay.

MFE-280 = test: cells; settings: Homo sapiens;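 also: growth inhibition of MFE-280 cells, determined with a cell viability readout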
Description: SANGER: Inhibition of human MFE-280 cell growth in a cell viability assay.

KYSE-180 = test: cells; settings: Homo sapiens;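 also: growth inhibition of KYSE-180 cells, read out with a cell viability assay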
Description: SANGER: Inhibition of human KYSE-180 cell growth in a cell viability assay.

MDA-MB-415 = test: cells; settings: Homo sapiens
NCI-H1703 = test: cells; settings: Homo sapiens;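 also: growth inhibition of NCI-H1703 cells, read out via a cell viability assay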
Description: SANGER: Inhibition of human NCI-H1703 cell growth in a cell viability assay.

NCI-H810 = test: cells; settings: Homo sapiens;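 also: IC50 reflects inhibition of cancer cell line growth, read out with a cell viability assay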
Description: SANGER: Inhibition of human NCI-H810 cell growth in a cell viability assay.

LCLC-103H cell line = test: cells; settings: Homo sapiens
Description: SANGER: Inhibition of human LCLC-103H cell growth in a cell viability assay.

HCC1395 = test: cells; settings: Homo sapiens;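 also: growth inhibition of HCC1395 cells, read out by a cell viability assay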
Description: SANGER: Inhibition of human HCC1395 cell growth in a cell viability assay.

SW-620 = test: cells; settings: Homo sapiens;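 also: growth inhibition of human SW-620 cells, measured by a cell viability assay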
Description: SANGER: Inhibition of human SW620 cell growth in a cell viability assay.

Calu-3 = test: cells; settings: Homo sapiens;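 also: growth inhibition of human Calu-3 cells, determined with a cell viability assay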
Description: SANGER: Inhibition of human Calu-3 cell growth in a cell viability assay.

KARPAS-422 = test: cells; settings: Homo sapiens
Description: SANGER: Inhibition of human KARPAS-422 cell growth in a cell viability assay.

SK-LU-1 = test: cells; settings: Homo sapiens;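 also: cell viability assay measuring growth inhibition of human SK-LU-1 cells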
Description: SANGER: Inhibition of human SK-LU-1 cell growth in a cell viability assay.

BOKU = test: cells; settings: Homo sapiens;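 also: growth inhibition of the human BOKU cell line, read out by a cell viability assay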
Description: SANGER: Inhibition of human BOKU cell growth in a cell viability assay.

OE33 = test: cells; settings: Homo sapiens;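 also: growth inhibition of human OE33 cells, measured by a cell viability assay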
Description: SANGER: Inhibition of human OE33 cell growth in a cell viability assay.

AGS = test: cells; settings: Homo sapiens;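 also: growth inhibition of AGS cells, determined with a cell viability assay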
Description: SANGER: Inhibition of human AGS cell growth in a cell viability assay.

NCI-H2452 = test: cells; settings: Homo sapiens;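 also: growth inhibition of NCI-H2452 cells, read out with a cell viability assay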
Description: SANGER: Inhibition of human NCI-H2452 cell growth in a cell viability assay.

ABC-1 = test: cells; settings: Homo sapiens;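 also: growth inhibition of human ABC-1 cells, read out by a cell viability assay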
Description: SANGER: Inhibition of human ABC-1 cell growth in a cell viability assay.

EFO-27 = test: cells; settings: Homo sapiens;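 also: growth inhibition of EFO-27 cells, read out with a cell viability assay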
Description: SANGER: Inhibition of human EFO-27 cell growth in a cell viability assay.

IM-9 = test: SANGER: Inhibition of human IM-9 cell growth in a cell viability assay.
TYK-nu = test: cells; settings: Homo sapiens;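 also: growth inhibition of human TYK-nu cells, read out by a cell viability assay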
Description: SANGER: Inhibition of human TYK-nu cell growth in a cell viability assay.

RT-112 = test: cells; settings: Homo sapiens
Description: SANGER: Inhibition of human RT-112 cell growth in a cell viability assay.

NCI-H2122 = test: cells; settings: Homo sapiens;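 also: growth inhibition of the cells, read out with a cell viability assay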
Description: SANGER: Inhibition of human NCI-H2122 cell growth in a cell viability assay.

HT55 = test: cells; settings: Homo sapiens;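 also: cell viability readout measuring growth inhibition of human HT55 cells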
Description: SANGER: Inhibition of human HT55 cell growth in a cell viability assay.

D-392MG = test: cells; settings: Homo sapiens
Ca9-22 = test: cells; settings: Homo sapiens;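 also: growth inhibition of Ca9-22 cells, read out with a cell viability assay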
Description: SANGER: Inhibition of human Ca9-22 cell growth in a cell viability assay.

HO-1-N-1 = test: cells; settings: Homo sapiens;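 also: growth inhibition of human HO-1-N-1 cells, read out with a cell viability assay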
Description: SANGER: Inhibition of human HO-1-N-1 cell growth in a cell viability assay.

SCC-4 = test: cells; settings: Homo sapiens;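 also: growth inhibition of human SCC-4 cells, read out as cell viability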
Description: SANGER: Inhibition of human SCC-4 cell growth in a cell viability assay.

LP-1 = test: cells; settings: Homo sapiens;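 also: growth inhibition of human LP-1 cells, with the read-out taken from a cell viability assay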
Description: SANGER: Inhibition of human LP-1 cell growth in a cell viability assay.

BT-20 = test: cells; settings: Homo sapiens;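 also: cell viability assay measuring suppression of growth in human BT-20 cells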
Description: SANGER: Inhibition of human BT-20 cell growth in a cell viability assay.

LU-165 = test: cells; settings: Homo sapiens
Description: SANGER: Inhibition of human LU-165 cell growth in a cell viability assay.

MKN-28 = test: cells; settings: Homo sapiens;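 also: cell viability assay read-out, IC50 reflects suppression of growth of human MKN-28 cells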
Description: SANGER: Inhibition of human MKN28 cell growth in a cell viability assay.

HPAF-II = test: cells; settings: Homo sapiens;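 also: growth inhibition of HPAF-II cells, read out with a cell viability assay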
Description: SANGER: Inhibition of human HPAF-II cell growth in a cell viability assay.

NCI-H358 = test: cells; settings: Homo sapiens;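 also: growth inhibition of NCI-H358 human cells, read out with a cell viability assay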
Description: SANGER: Inhibition of human NCI-H358 cell growth in a cell viability assay.

SF-295 = test: cells; settings: Homo sapiens;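 also: growth inhibition of SF-295 cells, read out with a cell viability assay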
Description: SANGER: Inhibition of human SF295 cell growth in a cell viability assay.

NCI-H1755 = test: cells; settings: Homo sapiens;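 also: cell viability readout used to measure growth inhibition of NCI-H1755 cells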
Description: SANGER: Inhibition of human NCI-H1755 cell growth in a cell viability assay.

SW948 = test: cells; settings: Homo sapiens;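 also: growth inhibition of SW948 cells, read out with a cell viability assay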
Description: SANGER: Inhibition of human SW948 cell growth in a cell viability assay.

NCI-H719 = test: cells; settings: Homo sapiens;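 also: growth inhibition of the cultured cell line, read out with a viability assay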
Description: SANGER: Inhibition of human NCI-H719 cell growth in a cell viability assay.

D-542MG = test: cells; settings: Homo sapiens
Description: SANGER: Inhibition of human D-542MG cell growth in a cell viability assay.

UACC-62 = test: cells; settings: Homo sapiens;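 also: growth inhibition of human UACC-62 cells, read out by a cell viability assay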
Description: SANGER: Inhibition of human UACC-62 cell growth in a cell viability assay.

Q: What does the source list for CCNC(=O)c1noc(-c2cc(C(C)C)c(O)cc2O)c1-c1ccc(CN2CCOCC2)cc1 [LUMINESPIB]?
A: IC50 (SU-DHL-1): 69.2 nM; IC50 (NCI-H522): 19.4 nM; IC50 (BEN): 116 nM; IC50 (BFTC-909): 31.3 nM; IC50 (RPMI-7951): 6.31 nM; IC50 (LoVo): 39.3 nM; IC50 (ME-180): 47.8 nM; IC50 (MDA-MB-361): 58.7 nM; IC50 (NCI-H1963): 51.8 nM; IC50 (SW1463): > 256 nM; IC50 (NCI-H292): 17.1 nM; IC50 (MONO-MAC-6): 38.9 nM; IC50 (SUP-T1): 67.6 nM; IC50 (639-V): 4.85 nM; IC50 (NCI-H2087): 32.9 nM; IC50 5637: 28.2 nM; IC50 (PC-14): 19.3 nM; IC50 (A 172): 39.5 nM; IC50 (NCI-H1437): 63.3 nM; IC50 (SW837): 30.1 nM; IC50 (KP-N-YN): > 256 nM; IC50 (KYSE-70 cell line): 38.1 nM; IC50 (IMR-5): 44.9 nM; IC50 (8505C): 8.21 nM; IC50 (RD): 26.6 nM; IC50 (MFE-280): > 256 nM; IC50 (KYSE-180): 5.86 nM; IC50 (MDA-MB-415): 197 nM; IC50 (NCI-H1703): 61.8 nM; IC50 (NCI-H810): 17.2 nM; IC50 (LCLC-103H cell line): 4.3 nM; IC50 (HCC1395): > 256 nM; IC50 (SW-620): 19.2 nM; IC50 (Calu-3): 37.9 nM; IC50 (KARPAS-422): 140 nM; IC50 (SK-LU-1): 18.5 nM; IC50 (BOKU): 66.7 nM; IC50 (OE33): 42.4 nM; IC50 (AGS): 10.6 nM; IC50 (NCI-H2452): > 256 nM; IC50 (ABC-1): 87.6 nM; IC50 (EFO-27): 10.2 nM; IC50 (IM-9): 235 nM; IC50 (TYK-nu): > 256 nM; IC50 (RT-112): 5.35 nM; IC50 (NCI-H2122): 13.8 nM; IC50 (HT55): > 256 nM; IC50 (D-392MG): 38.4 nM; IC50 (Ca9-22): 28 nM; IC50 (HO-1-N-1): 25.5 nM; IC50 (SCC-4): 28.1 nM; IC50 (LP-1): > 256 nM; IC50 (BT-20): > 256 nM; IC50 (LU-165): 154 nM; IC50 (MKN-28): 30.1 nM; IC50 (HPAF-II): > 256 nM; IC50 (NCI-H358): 42.1 nM; IC50 (SF-295): 17.2 nM; IC50 (NCI-H1755): 138 nM; IC50 (SW948): > 256 nM; IC50 (NCI-H719): > 256 nM; IC50 (D-542MG): 140 nM; IC50 (UACC-62): 121 nM
